From US20050014846A1, “Ambroxol for the treatment of tinnitus” (Boehringer Ingelheim International GmbH, priority 2003, published 2005)

Experiments:
human GluR1/2 receptors = target: T1, human GluR1/2 receptors (Homo sapiens, UniProt P42261+P42262); test: Patch-clamp of glutamate-induced membrane currents in HEK 293 cells expressing GluR1/2; type: cell-based; settings: recombinant human GluR1/2, 1 mM glutamate for 1 s at holding potential −80 mV
T1 construct: expressed in transfected cells; host or cells: HEK 293
T1 sequence (P42261 19-906): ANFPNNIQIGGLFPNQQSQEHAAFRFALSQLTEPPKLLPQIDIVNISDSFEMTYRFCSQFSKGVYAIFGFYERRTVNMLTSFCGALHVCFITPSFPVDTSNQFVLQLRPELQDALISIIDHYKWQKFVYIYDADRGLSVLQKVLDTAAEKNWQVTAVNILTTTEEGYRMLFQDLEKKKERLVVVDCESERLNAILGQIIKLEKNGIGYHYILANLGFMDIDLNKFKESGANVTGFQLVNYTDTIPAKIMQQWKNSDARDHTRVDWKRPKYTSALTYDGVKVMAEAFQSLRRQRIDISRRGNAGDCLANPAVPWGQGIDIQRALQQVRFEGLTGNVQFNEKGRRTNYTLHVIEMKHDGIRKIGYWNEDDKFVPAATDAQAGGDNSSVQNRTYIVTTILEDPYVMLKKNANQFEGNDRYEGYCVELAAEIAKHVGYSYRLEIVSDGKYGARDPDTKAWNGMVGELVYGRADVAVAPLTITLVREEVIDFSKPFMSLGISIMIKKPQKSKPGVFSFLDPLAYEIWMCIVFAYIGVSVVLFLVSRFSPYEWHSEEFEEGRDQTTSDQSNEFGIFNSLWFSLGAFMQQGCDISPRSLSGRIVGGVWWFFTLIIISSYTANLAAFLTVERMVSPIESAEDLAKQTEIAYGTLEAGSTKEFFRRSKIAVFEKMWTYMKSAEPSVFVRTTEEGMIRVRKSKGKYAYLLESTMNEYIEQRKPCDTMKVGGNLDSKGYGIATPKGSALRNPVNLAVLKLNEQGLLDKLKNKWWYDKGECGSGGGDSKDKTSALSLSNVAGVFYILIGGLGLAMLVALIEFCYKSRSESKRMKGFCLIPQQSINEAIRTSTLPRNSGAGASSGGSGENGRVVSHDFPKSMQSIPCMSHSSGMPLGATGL
T1 sequence (P42262 22-883 limits assumed): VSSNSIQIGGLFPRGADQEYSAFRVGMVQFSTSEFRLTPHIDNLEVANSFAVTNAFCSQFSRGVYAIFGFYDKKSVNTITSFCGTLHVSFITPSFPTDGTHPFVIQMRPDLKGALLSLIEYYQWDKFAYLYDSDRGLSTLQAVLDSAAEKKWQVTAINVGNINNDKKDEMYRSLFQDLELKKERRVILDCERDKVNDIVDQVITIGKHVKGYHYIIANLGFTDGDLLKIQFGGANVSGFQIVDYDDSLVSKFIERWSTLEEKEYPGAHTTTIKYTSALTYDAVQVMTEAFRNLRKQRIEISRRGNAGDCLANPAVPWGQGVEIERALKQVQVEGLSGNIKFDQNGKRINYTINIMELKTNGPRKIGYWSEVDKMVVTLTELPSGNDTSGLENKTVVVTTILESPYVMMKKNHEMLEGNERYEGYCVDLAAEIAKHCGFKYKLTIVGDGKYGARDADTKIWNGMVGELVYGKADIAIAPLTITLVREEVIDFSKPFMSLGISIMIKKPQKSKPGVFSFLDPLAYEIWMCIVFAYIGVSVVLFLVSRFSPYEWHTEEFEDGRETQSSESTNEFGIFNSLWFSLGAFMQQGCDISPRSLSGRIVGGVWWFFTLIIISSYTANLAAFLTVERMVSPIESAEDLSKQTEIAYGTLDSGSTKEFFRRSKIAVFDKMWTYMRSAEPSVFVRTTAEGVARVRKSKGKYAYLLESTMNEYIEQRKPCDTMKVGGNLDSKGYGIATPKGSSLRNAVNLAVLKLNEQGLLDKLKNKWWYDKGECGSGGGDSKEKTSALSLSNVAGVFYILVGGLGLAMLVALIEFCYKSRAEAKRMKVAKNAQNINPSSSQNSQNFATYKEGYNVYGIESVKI
Protocol: Ionotropic glutamate receptors of the AMPA subtype are also essential for the excitatory neurotransmission. […] HEK 293 cells which expressed functionally recombinant human GluR1/2 receptors were electrophysiologically investigated by the Patch-Clamp method ([…]). The administration of 1 mM glutamate (for 1 s at a holding potential of −80 mV) induced membrane currents which were inhibited by the joint administration of ambroxol.

[1] = system: centrally expressed neuronal sodium channels; settings: neuronal sodium channel subtypes, Weiser and Wilson, Mol. Pharmacol. 62, 433-438, 2002, read-out: half-maximum inhibition of centrally expressed channels; cited from earlier work

concentrations inhibiting glutamate-induced membrane currents (human GluR1/2 receptors): 30 to 1000 µM
SMILES: Nc1c(Br)cc(Br)cc1CN[C@H]1CC[C@H](O)CC1 [ambroxol, trans-4-(2-amino-3,5-dibromobenzylamino)cyclohexanol]
IC50 [1]: 111 µM
